Source: patent US20200109126A1 (priority 2017, published 2020)
Read-outs that look alike come from different tables or passages of the source.

Legend:
[1] = target: hMOR (Homo sapiens, UniProt P35372); assay: Receptor binding with [3H]diprenorphine at hMOR
[2] = target: T1, MM1 (MOR N127C) (Homo sapiens, UniProt P35372, N129C); assay: Receptor binding at MM1 (MOR N127C)
T1 construct: expressed in transfected cells; host or cells: HEK 293

[3] = target: humanDOR (Homo sapiens, UniProt P41143); assay: Receptor binding with [3H]diprenorphine at human DOR
Chain of humanDOR (P41143 whole entry): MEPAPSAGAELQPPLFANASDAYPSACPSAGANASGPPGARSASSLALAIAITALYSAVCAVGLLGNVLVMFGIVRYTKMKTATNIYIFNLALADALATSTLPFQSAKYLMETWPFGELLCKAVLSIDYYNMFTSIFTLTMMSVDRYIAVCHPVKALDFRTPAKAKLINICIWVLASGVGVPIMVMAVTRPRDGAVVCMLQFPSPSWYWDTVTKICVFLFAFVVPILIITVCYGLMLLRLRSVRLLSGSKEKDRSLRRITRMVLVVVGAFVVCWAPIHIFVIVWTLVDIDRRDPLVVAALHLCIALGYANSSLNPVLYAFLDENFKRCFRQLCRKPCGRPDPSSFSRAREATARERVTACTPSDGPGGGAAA

[4] = target: hKOR (Homo sapiens, UniProt P41145); assay: Receptor binding with [3H]diprenorphine at hKOR
Chain of hKOR (P41145 whole entry): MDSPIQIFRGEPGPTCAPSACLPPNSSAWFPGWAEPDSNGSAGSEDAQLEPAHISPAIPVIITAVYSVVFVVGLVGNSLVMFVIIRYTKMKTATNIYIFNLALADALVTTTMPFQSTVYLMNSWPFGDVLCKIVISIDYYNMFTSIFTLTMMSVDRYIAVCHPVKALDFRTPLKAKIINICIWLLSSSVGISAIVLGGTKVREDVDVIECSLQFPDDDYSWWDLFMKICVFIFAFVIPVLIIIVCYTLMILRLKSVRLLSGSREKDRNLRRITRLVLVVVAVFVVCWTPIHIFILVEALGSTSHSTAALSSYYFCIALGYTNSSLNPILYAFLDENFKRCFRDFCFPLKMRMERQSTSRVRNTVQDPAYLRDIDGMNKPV

[5] = target: T2, μOR (Homo sapiens, UniProt P35372); assay: β-arrestin recruitment at μOR with GRK2 co-expression; type: cell-based; conditions: for EC50: read-out: Arrestin + GRK2 EC50
T2 sequence (P35372 whole entry): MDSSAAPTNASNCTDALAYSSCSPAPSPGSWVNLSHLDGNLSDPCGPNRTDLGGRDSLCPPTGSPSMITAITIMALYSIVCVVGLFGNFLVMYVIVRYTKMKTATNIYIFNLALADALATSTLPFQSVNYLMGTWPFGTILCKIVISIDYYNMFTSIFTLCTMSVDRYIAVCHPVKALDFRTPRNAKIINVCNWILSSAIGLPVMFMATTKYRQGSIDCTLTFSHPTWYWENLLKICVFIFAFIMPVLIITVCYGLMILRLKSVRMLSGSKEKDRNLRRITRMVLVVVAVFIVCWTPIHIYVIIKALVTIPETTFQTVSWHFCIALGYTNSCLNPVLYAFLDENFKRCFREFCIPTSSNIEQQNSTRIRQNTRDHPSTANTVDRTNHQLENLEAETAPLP

[6] = target: T2, μOR; assay: β-arrestin recruitment at μOR without GRK2; type: cell-based
[7] = target: T2, μOR; assay: cell-based; type: cell-based
[8] = target: T2, μOR; assay: biochemical; type: binding; parameters: expressed in transfected cells; host or cells: HEK293 membranes (Ki); Sf9 insect cell membranes (single-point screen); PDSP for analogs
Description: For a primary screen of selected molecules, binding to OR was assessed by measuring competition against the radioligand ^3H-diprenorphine (^3H-DPN). […] The reaction contained 40 fmol of μOR and was incubated in a buffer of 20 mM HEPES pH 7.5, 100 mM sodium chloride, and 0.1% bovine serum albumin for 1 hour at 25° C. To separate free from bound radioligand, reactions were rapidly filtered over Whatman GF/B filters with the aid of a Brandel harvester and ^3H-DPN counts were measured by liquid scintillation.

[9] = target: T3, κOR (Homo sapiens, UniProt P41145); assay: Radioligand binding at κOR (PDSP); conditions: for Ki: analogs, full dose-response; for κOR Ki, given as percentage: <50% instead of a Ki
T3 construct: NIMH Psychoactive Drug Screening Program (PDSP)
T3 sequence (P41145 whole entry): as the sequence (P41145 whole entry) above

[10] = PZM analogs, (n) = number of independent experiments, read-out: binding affinity Ki hMOR
[11] = (n) = number of independent experiments, read-out: binding affinity Ki MM1 (MOR N127C)
[12] = PZM analogs, (n) = number of independent experiments, read-out: binding affinity Ki hDOR
[13] = PZM analogs, (n) = number of independent experiments, read-out: binding affinity Ki hKOR
[14] = ± SD (two experiments) or SEM, (n) experiments, read-out: hMOR [3H]dyprenorphine Ki
[15] = ± SD (two experiments) or SEM, (n) experiments, read-out: humanDOR [3H]dyprenorphine Ki
[16] = ± SD (two experiments) or SEM, (n) experiments, read-out: hKOR [3H]dyprenorphine Ki
[17] = molecules identified in the initial screen, read-out: μOR Ki
[18] = analogs, full dose-response, read-out: μOR Ki
[19] = μOR Gi EC50 (μM), ND = not detectable under these experimental conditions

Chain of hMOR (P35372 whole entry): as the sequence (P35372 whole entry) above
T1 sequence (P35372 whole entry N129C): as the sequence (P35372 whole entry) above, with N129C counted along it

## C[C@@H](Cc1ccsc1)NC(=O)NC[C@H](Cc1ccc(O)nc1)N(C)C
[1]; [10]
  Ki: 4600 nM
[2]; [11]
  Ki: 3800 nM
[3]; [12]
  Ki: > 20000 nM
[4]; [13]
  Ki: 12000 nM

## CN(C)[C@H](CNC(=O)NCCN1C(=O)C=CC1=O)Cc1ccc(O)cc1
[1]; [10]
  Ki: 240 nM
[2]; [11]
  Ki: 3.7 nM
[3]; [12]
  Ki: 450 nM
[4]; [13]
  Ki: 600 nM

## CN(C)[C@H](CNC(=O)NCCCN1C(=O)C=CC1=O)Cc1ccc(O)cc1
[1]; [10]
  Ki: 380 nM
[2]; [11]
  Ki: 4.7 nM
[3]; [12]
  Ki: 3100 nM
[4]; [13]
  Ki: 450 nM

## CN(C)[C@H](CNC(=O)NCCc1c[nH]nn1)Cc1ccc(O)cc1
[1]
  Ki: 960 nM
[2]
  Ki: 630 nM
[3]
  Ki: 4700 nM
[4]
  Ki: 1400 nM

## CN(CCc1ccccc1)C(=O)N(C)C[C@H](Cc1ccc(O)cc1)N(C)C [DD109]
[5]
  Arrestin + GRK2 EC50 nM: No Activity
  Arrestin + GRK2 Emax % DAMGO: No Activity
[6]
  Arrestin EC50 nM: No Activity
  Arrestin Emax % DAMGO: No Activity
[7]
  Gi/o EC50 nM: No Activity
  Gi/o Emax % DAMGO: No Activity

## C[C@@H](Cc1ccsc1)NC(=O)NC[C@H](Cc1ccc(O)c(CO)c1)N(C)C [DD131, 1-((S)-2-(dimethylamino)-3-(4-hydroxy-3-(hydroxymethyl)phenyl)propyl)-3-((S)-1-(thiophen-3-yl)propan-2-yl)urea]
[5]
  Arrestin + GRK2 Emax % DAMGO: 45 % DAMGO
  EC50: 213 nM
[6]
  Arrestin Emax % DAMGO: 11 % DAMGO
[6]; read-out: Arrestin EC50
  EC50: 230 nM
[7]
  Gi/o Emax % DAMGO: 57 % DAMGO
[7]; Gi/o EC50 nM
  EC50: 7.94 nM

## CN(CC1CC1)[C@H](CNC(=O)NCCc1ccccc1)Cc1ccc(O)cc1 [DD184]
[5]
  Arrestin + GRK2 EC50 nM: No Activity
  Arrestin + GRK2 Emax % DAMGO: No Activity
[6]
  Arrestin EC50 nM: No Activity
  Arrestin Emax % DAMGO: No Activity
[7]
  Gi/o Emax % DAMGO: 40 % DAMGO
[7]; Gi/o EC50 nM
  EC50: 559 nM

## CN(C)[C@H](CNC(=O)NCCc1ccsc1)Cc1ccc(O)cc1 [DD 16, (S)-1-(2-(dimethylamino)-3-(4-hydroxyphenyl)propyl)-3-(2-(thiophen-3-yl)ethyl)urea]
[1]; [14]
  Ki: 43 nM
[5]
  Arrestin + GRK2 Emax % DAMGO: 33 % DAMGO
  EC50: 144 nM
[6]
  Arrestin Emax % DAMGO: 5 % DAMGO
[6]; read-out: Arrestin pEC50 (converted)
  EC50: 410 nM
[3]; [15]
  Ki: 330 nM
[7]
  Gi/o Emax % DAMGO: 60 % DAMGO
[7]; Gi/o EC50 nM
  EC50: 7.55 nM
[4]; [16]
  Ki: 150 nM

## CN(C)[C@H](CNC(=O)NC(C)(C)Cc1ccsc1)Cc1ccc(O)cc1 [DD 32L, (S)-1-(2-(dimethylamino)-3-(4-hydroxyphenyl)propyl)-3-(2-methyl-1-(thiophen-3-yl)propan-2-yl)urea]
[1]; [14]
  Ki: 38 nM
[5]
  Arrestin + GRK2 Emax % DAMGO: 24 % DAMGO
  EC50: 49.4 nM
[6]
  Arrestin Emax % DAMGO: 3 % DAMGO
[6]; read-out: Arrestin EC50
  EC50: 5.23 nM
[3]; [15]
  Ki: 650 nM
[7]
  Gi/o Emax % DAMGO: 52 % DAMGO
[7]; Gi/o EC50 nM
  EC50: 23.5 nM
[4]; [16]
  Ki: 46 nM

## CN(C)[C@H](CNC(=O)NC(C)(C)Cc1ccccc1)Cc1ccc(O)cc1 [DD 33L, (S)-1-(2-(dimethylamino)-3-(4-hydroxyphenyl)propyl)-3-(2-methyl-1-phenylpropan-2-yl)urea]
[1]; [14]
  Ki: 46 nM
[5]
  Arrestin + GRK2 Emax % DAMGO: 14 % DAMGO
  EC50: 134 nM
[6]
  Arrestin EC50 nM: No Activity
  Arrestin Emax % DAMGO: No Activity
[3]; [15]
  Ki: 920 nM
[7]
  Gi/o Emax % DAMGO: 61 % DAMGO
[7]; Gi/o EC50 nM
  EC50: 98.1 nM
[7]; Gi/o pEC50
  EC50: 98.2 nM
[4]; [16]
  Ki: 91 nM

## C[C@@H](Cc1ccsc1)NC(=O)NC[C@H](Cc1cccc(O)c1)N(C)C [DD 47LS, 1-((S)-2-(dimethylamino)-3-(3-hydroxyphenyl)propyl)-3-((S)-1-(thiophen-3-yl)propan-2-yl)urea]
[1]; [14]
  Ki: 34 nM
[5]
  Arrestin + GRK2 Emax % DAMGO: 70 % DAMGO
  EC50: 211 nM
[6]
  Arrestin Emax % DAMGO: 12 % DAMGO
[6]; read-out: Arrestin EC50
  EC50: 357 nM
[3]; [15]
  Ki: 350 nM
[7]
  Gi/o Emax % DAMGO: 73 % DAMGO
[7]; Gi/o EC50 nM
  EC50: 17 nM
[4]; [16]
  Ki: 46 nM

## C[C@H](NC(=O)NC[C@H](Cc1ccc(O)cc1)N(C)C)c1ccccc1 [DD 53LS, 1-((S)-2-(dimethylamino)-3-(4-hydroxyphenyl)propyl)-3-((S)-1-phenylethyl)urea]
[1]; [14]
  Ki: 28 nM
[5]
  Arrestin + GRK2 Emax % DAMGO: 33 % DAMGO
  EC50: 87.4 nM
[6]
  Arrestin Emax % DAMGO: 5 % DAMGO
[6]; read-out: Arrestin EC50
  EC50: 67.9 nM
[3]; [15]
  Ki: 180 nM
[7]
  Gi/o Emax % DAMGO: 63 % DAMGO
[7]; Gi/o EC50 nM
  EC50: 3.08 nM
[4]; [16]
  Ki: 22 nM

## CN(C)[C@H](CNC(=O)NC1Cc2ccccc2C1)Cc1ccc(O)cc1 [DD 57L, (S)-1-(2,3-dihydro-1H-inden-2-yl)-3-(2-(dimethylamino)-3-(4-hydroxyphenyl)propyl)urea]
[1]; [14]
  Ki: 8.3 nM
[5]
  Arrestin + GRK2 EC50 nM: No Activity
  Arrestin + GRK2 Emax % DAMGO: No Activity
[6]
  Arrestin EC50 nM: No Activity
  Arrestin Emax % DAMGO: No Activity
[3]; [15]
  Ki: 74 nM
[7]
  Gi/o EC50 nM: No Activity
  Gi/o Emax % DAMGO: No Activity
[4]; [16]
  Ki: 40 nM

## C[C@@H](Cc1ccccc1)NC(=O)NC[C@H](Cc1ccc(O)cc1)N(C)C [DD 61L-B, 1-((S)-2-(dimethylamino)-3-(4-hydroxyphenyl)propyl)-3-((S)-1-phenylpropan-2-yl)urea]
[1]; [14]
  Ki: 42 nM
[5]
  Arrestin + GRK2 Emax % DAMGO: 79 % DAMGO
  EC50: 278 nM
[6]
  Arrestin Emax % DAMGO: 12 % DAMGO
[6]; read-out: Arrestin EC50
  EC50: 84.1 nM
[3]; [15]
  Ki: 360 nM
[7]
  Gi/o Emax % DAMGO: 84 % DAMGO
[7]; Gi/o EC50 nM
  EC50: 35.5 nM
[4]; [16]
  Ki: 37 nM

## CN(C)[C@H](CNC(=O)Cc1cn2ccccc2n1)Cc1ccccc1 [compound 2]
[8]; [17]
  Ki: 5800 nM

## Cc1cccc(NC2CCN(C(=O)Nc3ccc(F)cc3F)CC2)n1 [compound 3]
[8]; [17]
  Ki: 13800 nM

## CN(C)[C@H](CNC(=O)Cc1ccc([N+](=O)[O-])s1)Cc1ccccc1 [compound 4]
[8]
  Ki: 2300 nM

## Cc1ccc2[nH]c(=O)c(CN3CCN[C@@H](c4ccccc4)C3)cc2c1 [compound 5]
[8]; [17]
  Ki: 4700 nM

## CC(C)[C@H](CNC(=O)c1ccc([N+](=O)[O-])s1)N1CCc2ccccc2C1 [compound 8]
[9]; read-out: κOR Ki
  Ki: 0.46 µM
[7]; ND = not detectable under these experimental conditions, read-out: μOR Gi EC50
  EC50: 6600 nM
[8]; [18]
  Ki: 820 nM

## O=C(Cc1cn2ccccc2n1)NCC1(c2ccccc2)CCC1 [compound 9]
[9]; κOR Ki (μM)
  Ki: 1.36 µM
[8]; <50% instead of a Ki
  μOR Ki column, given as percentage: <50%

## CN(Cc1nnc(C2CC2)n1C)C(=O)NC[C@@H](Cc1ccccc1)N(C)C [compound 10]
[9]
  κOR Ki, given as percentage: <50%
[8]
  Ki: 4750 nM

## CN(C)[C@@H](CNC(=O)NC[C@@H](O)c1cnn(C)c1)Cc1ccccc1 [compound 11]
[9]
  κOR Ki, given as percentage: <50%
[8]; [18]
  Ki: 1860 nM

## COc1nc(C)cc(C)c1CNC(=O)NC[C@@H](Cc1ccccc1)N(C)C [compound 13]
[9]; κOR Ki (μM)
  Ki: 1.02 µM
[7]; [19]
  EC50: 3100 nM
[8]
  Ki: 550 nM

## CN(C)[C@H](CNC(=O)NCc1cccc([N+](=O)[O-])c1)Cc1ccccc1 [compound 14]
[9]; κOR Ki (μM)
  Ki: 0.51 µM
[7]; [19]
  EC50: 440 nM
[8]
  Ki: 87 nM

## Cc1nc(CNC(=O)NC[C@@H](Cc2ccccc2)N(C)C)sc1C [compound 15]
[9]
  κOR Ki, given as percentage: <50%
[8]
  Ki: 130 nM
